B1: scFv of huAbF46: scFv of huAbF46, structure VH-linker-VL with linker SEQ ID NO: 54 (protein)
scFv: EVQLVESGGGLVQPGGSLRLSCAASGFTFTDYYMSWVRQAPGKGLEWLGFIRNKANGYTTEYSASVKGRFTISRDNSKNTLYLQMNSLRAEDTAVYYCARDNWFAYWGQGTLVTVSSGLGGLGGGGSGGGGSGGSSGVGSDIQMTQSPSSLSASVGDRVTITCKSSQSLLASGNQNNYLAWHQQKPGKAPKMLIIWASTRVSGVPSRFSGSGSGTDFTLTISSLQPEDFATYYCQQSYSAPLTFGQGTKVEIKR

Tests used:
[1] = test system: SNU5 cells; experiment: SNU5 xenograft tumor model in CB.17-SCID mice; type: in vivo; conditions: intravenous, 4 weeks; antibodies 1 mg/kg once a week, Irinotecan 10 mg/kg twice a week; initial size 100 mm^3
Protocol: SNU5 cells (ATCC) were injected into dorsal subcutis of 5-6 week old CB.17-SCID mice (Shanghai SLAC Laboratory Animal Co. Ltd.) at the amount of 3×10^6 cell/mouse, to prepare tumor models. When the tumor volume reaches 100 mm^3, 1 mg/kg of L3-1Y-IgG2 and 1 mg/kg of anti-c-Met/anti-EGFR bispecific antibody ME22S were intravenously administered alone or in combination once a week for 4 weeks in total. A group where PBS is intravenously administered thereto was used as a negative control, and a group where 10 mg/kg of an anticancer drug, Irinotecan (Pfizer Inc.), was intravenously administered thereto twice a week for 4 weeks in total, was used as a positive control. The tumor size (length×breadth×height) was measured twice each week, and at the last week, the mice were autopsied.

[2] = molecular target: c-Met (Homo sapiens, UniProt P08581); experiment: Specificity of expressed scFv of huAbF46; type: binding; parameters: endogenous in cells; host or cells: SNU638 (A8, A11); MKN45 (A11); conditions: after expression
Chain of c-Met (P08581 25-1390): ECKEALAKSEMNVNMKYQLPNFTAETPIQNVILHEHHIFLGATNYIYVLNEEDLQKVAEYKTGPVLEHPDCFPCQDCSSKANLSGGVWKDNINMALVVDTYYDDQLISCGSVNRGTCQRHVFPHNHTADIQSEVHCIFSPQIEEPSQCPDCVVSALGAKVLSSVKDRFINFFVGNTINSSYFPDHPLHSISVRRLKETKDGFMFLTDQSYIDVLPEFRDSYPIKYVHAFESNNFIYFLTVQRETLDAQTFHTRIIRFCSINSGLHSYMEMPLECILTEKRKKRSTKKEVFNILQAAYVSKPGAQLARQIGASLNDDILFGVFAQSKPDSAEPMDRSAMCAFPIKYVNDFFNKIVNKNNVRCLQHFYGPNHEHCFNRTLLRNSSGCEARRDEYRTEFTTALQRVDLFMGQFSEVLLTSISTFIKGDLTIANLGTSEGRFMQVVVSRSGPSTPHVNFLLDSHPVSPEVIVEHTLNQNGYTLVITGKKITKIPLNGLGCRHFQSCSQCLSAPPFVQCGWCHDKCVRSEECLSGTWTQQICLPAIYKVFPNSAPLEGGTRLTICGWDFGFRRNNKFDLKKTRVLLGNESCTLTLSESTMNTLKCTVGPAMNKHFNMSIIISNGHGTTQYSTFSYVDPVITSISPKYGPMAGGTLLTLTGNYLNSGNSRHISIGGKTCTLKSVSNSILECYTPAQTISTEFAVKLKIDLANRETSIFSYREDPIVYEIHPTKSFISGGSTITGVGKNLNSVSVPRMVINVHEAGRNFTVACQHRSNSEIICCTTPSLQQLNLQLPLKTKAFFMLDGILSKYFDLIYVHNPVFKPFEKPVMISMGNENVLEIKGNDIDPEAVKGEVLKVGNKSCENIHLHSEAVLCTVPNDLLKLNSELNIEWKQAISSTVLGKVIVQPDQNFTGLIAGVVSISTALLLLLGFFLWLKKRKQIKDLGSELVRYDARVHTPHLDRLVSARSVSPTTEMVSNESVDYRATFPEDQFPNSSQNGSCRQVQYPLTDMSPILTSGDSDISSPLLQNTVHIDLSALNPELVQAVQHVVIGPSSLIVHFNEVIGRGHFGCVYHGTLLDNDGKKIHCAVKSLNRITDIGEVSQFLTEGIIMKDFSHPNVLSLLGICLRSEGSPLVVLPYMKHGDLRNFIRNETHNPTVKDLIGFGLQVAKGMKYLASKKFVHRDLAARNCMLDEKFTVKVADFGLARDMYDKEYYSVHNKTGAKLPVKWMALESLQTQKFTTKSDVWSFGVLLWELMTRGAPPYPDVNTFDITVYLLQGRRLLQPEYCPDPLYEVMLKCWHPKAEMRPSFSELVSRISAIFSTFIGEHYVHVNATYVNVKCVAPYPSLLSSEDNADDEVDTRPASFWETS
Source text: For use in constructing an scFv of the huAbF46 antibody from the heavy and light chain variable regions of the huAbF46 antibody, a gene was designed to have the structure of “VH-linker-VL” for each of the heavy and the light chain variable region, with the linker including the amino acid sequence “[…]” (SEQ ID NO: 54). A polynucleotide sequence (SEQ ID NO: 55) encoding the designed scFv of huAbF46 was synthesized in Bioneer and an expression vector for the polynucleotide had the nucleotide sequence of SEQ ID NO: 56.

| Molecule | final tumor size [1] | specificity to c-Met [2] |
| --- | --- | --- |
| CCc1c2c(nc3ccc(OC(=O)N4CCC(N5CCCCC5)CC4)cc13)-c1cc3c(c(=O)n1C2)COC(=O)[C@]3(O)CC [Irinotecan, reference compound] | about 72 mm^3 |  |
| B1 |  | exhibit specificity to c-Met |

Reference: patent US9902776B2, “Anti-EGFR antibody and anti-c-Met/anti-EGFR bispecific antibodies comprising the same” (Samsung Electronics Co., Ltd., priority 2013, dated 2018)
